Experiments:
Experiment in all cases: relative viability (nuclei count vs DMSO), 5 days (fraction); higher = more cells survive
[1] = compound: CC1=CN2C(=O)C=C(N=C2C(=C1)C(C)NC3=CC=CC=C3)N4CCOCC4 [TGX 221] + Cc1nc(Nc2ncc(C(=O)Nc3c(C)cccc3Cl)s2)cc(N2CCN(CCO)CC2)n1 [Dasatinib] (partner 0.075 µM)
Outline: (§1)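 Relative viability is defined as nuclei in treated wells over nuclei in vehicle wells. Duplicate plates were run and medians reported. Lung cancer cell lines in 1536-well plates were dosed by pin tool one day after seeding, with one drug or with a fixed anchor-drug dose plus five library-drug doses (not always all listed) in √10 steps, and nuclei were counted after 5 days.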

[2] = compound: CC1=CN2C(=O)C=C(N=C2C(=C1)C(C)NC3=CC=CC=C3)N4CCOCC4 [TGX 221] + CS(=O)(=O)N1CCN(Cc2cc3nc(-c4cccc5[nH]ncc45)nc(N4CCOCC4)c3s2)CC1 [Pictilisib] (partner 1 µM)
Outline: as §1

[3] = compound: O=C(CCCCCCNC(=O)c1cnc(N(c2ccccc2)c2ccccc2)nc1)NO [Ricolinostat] + CCNC(=O)c1noc(-c2cc(C(C)C)c(O)cc2O)c1-c1ccc(CN2CCOCC2)cc1 [Luminespib] (partner 0.01 µM)
Outline: as §1

[4] = compound: O=C(CCCCCCNC(=O)c1cnc(N(c2ccccc2)c2ccccc2)nc1)NO [Ricolinostat] + CC1(C)CCC(c2ccc(Cl)cc2)=C(CN2CCN(c3ccc(C(=O)NS(=O)(=O)c4ccc(N[C@H](CCN5CCOCC5)CSc5ccccc5)c(S(=O)(=O)C(F)(F)F)c4)cc3)CC2)C1 [Navitoclax] (partner 0.5 µM)
Outline: as §1

NCI-H1792 showed a relative viability ([1]; first compound 0.08 µM) of 0.831, a relative viability ([1]; first compound 0.253 µM) of 0.699 and a relative viability ([1]; first compound 0.8 µM) of 0.785. For the same cell line, the relative viability ([1]; first compound 2.53 µM) was 0.7, the relative viability ([1]; first compound 8 µM) was 0.503 and the relative viability ([2]; first compound 0.08 µM) was 0.29. It also gave a relative viability ([2]; first compound 0.253 µM) of 0.281, a relative viability ([2]; first compound 0.8 µM) of 0.294 and a relative viability ([2]; first compound 2.53 µM) of 0.246. For the same cell line, the relative viability ([2]; first compound 8 µM) was 0.228, the relative viability ([3]; first compound 0.08 µM) was 0.297 and the relative viability ([3]; first compound 0.253 µM) was 0.417. The relative viability ([3]; first compound 0.8 µM) was 0.373, the relative viability ([3]; first compound 2.53 µM) was 0.418 and the relative viability ([4]; first compound 0.08 µM) was 0.438. The relative viability ([4]; first compound 0.253 µM) was 0.632, the relative viability ([4]; first compound 0.8 µM) was 0.518 and the relative viability ([4]; first compound 2.53 µM) was 0.654.

— the supplement of paper PMC10307832
